Several values for one entry are separate records, joined by “and”; a condition that tells them apart may be missing. Equal values may be shown once.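 All cell lines were grown in 96-well plates and treated with compound for 48 hours. Abbreviation: GI50, concentration required for 50% inhibition of growth. TGI marks complete inhibition of growth.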
Experiments:
Assay in all cases: growth of human tumour cells (NCI), 48 h
[1] = system: PC-3 prostate
[2] = system: A498 renal
[3] = system: HS 578T breast
[4] = system: MALME-3M melanoma
[5] = system: DU-145 prostate
[6] = system: M14 melanoma
[7] = system: T-47D breast
[8] = system: SF-268 CNS
[9] = system: U251 CNS
[10] = system: HOP-92 NSCLC

COc1ncnc2c(-c3ccco3)cn(COCc3ccccc3)c12
GI50 [1]: 3.5 µM | TGI [1]: > 50 µM | GI50 [2]: 0.697 µM | TGI [2]: > 50 µM | GI50 [3]: 18.6 µM | TGI [3]: > 50 µM | GI50 [4]: > 50 µM | TGI [4]: > 50 µM | GI50 [5]: > 50 µM | TGI [5]: > 50 µM | GI50 [6]: 22.5 µM | TGI [6]: > 50 µM | GI50 [7]: 2.98 µM | TGI [7]: > 50 µM | GI50 [8]: > 50 µM | TGI [8]: > 50 µM | GI50 [9]: 10.6 µM | TGI [9]: > 50 µM

CN1CCN(C(=S)SCN2C(=O)c3ccccc3S2(=O)=O)CC1
GI50 [1]: 10.8 µM | TGI [1]: 39.2 µM | GI50 [2]: 93 µM | TGI [2]: > 100 µM | GI50 [3]: 58.7 µM | TGI [3]: > 100 µM | GI50 [4]: 23.1 µM | TGI [4]: 95.8 µM | GI50 [5]: 26.4 µM | TGI [5]: > 100 µM | GI50 [6]: 7.93 µM | TGI [6]: 22.8 µM | GI50 [7]: 11 µM | TGI [7]: > 100 µM | GI50 [8]: 37.4 µM | TGI [8]: > 100 µM | GI50 [9]: 26.5 µM | TGI [9]: > 100 µM

COC(=O)C(=O)C(C(=O)C(=O)Nc1ccccc1C(N)=O)c1nc2ccc(C(=O)c3ccccc3)cc2[nH]c1=O (stereo not drawn)
TGI [2]: > 100 µM | TGI [4]: > 100 µM | TGI [6]: > 100 µM | TGI [8]: > 100 µM | TGI [9]: > 100 µM

Cc1ns/c(=N\C(=S)N(C)C)n1C
TGI [2]: > 100 µM | TGI [4]: > 100 µM | TGI [6]: > 100 µM | TGI [10]: > 100 µM | TGI [8]: > 100 µM | TGI [9]: > 100 µM

C/C(=N/Nc1ccc([N+](=O)[O-])cc1[N+](=O)[O-])C(CC(C(=O)Nc1ccccc1C)/C(C)=N\Nc1ccc([N+](=O)[O-])cc1[N+](=O)[O-])C(=O)Nc1ccccc1C (stereo not drawn)
TGI [2]: 34 µM | TGI [4]: > 63.1 µM | TGI [6]: 46 µM | TGI [10]: 15.5 µM | TGI [8]: 23.7 µM | TGI [9]: 14 µM

COc1cc(C(=O)/C=C/c2c(C(F)(F)F)nc3sccn23)cc(OC)c1OC
GI50 [1]: 2.66 µM | TGI [1]: 8.69 µM | GI50 [2]: 1.89 µM | TGI [2]: 3.42 µM | GI50 [4]: 1.59 µM | TGI [4]: 3.67 µM | GI50 [5]: 1.41 µM | TGI [5]: 2.86 µM | GI50 [10]: 7 µM | TGI [10]: 22.4 µM | GI50 [7]: 2.12 µM | TGI [7]: 5.76 µM | GI50 [8]: 1.74 µM | TGI [8]: 3.57 µM | GI50 [9]: 1.38 µM | TGI [9]: 2.79 µM

CN1C(=O)C23CC4=CC=CC(O)C4N2C(=O)C1(CO)SS3 (stereo not drawn)
TGI [1]: 0.387 µM | TGI [2]: 0.402 µM | TGI [4]: 0.449 µM | TGI [5]: 0.318 µM | TGI [6]: 0.295 µM | TGI [10]: 0.41 µM | TGI [7]: 0.339 µM | TGI [8]: 0.489 µM | TGI [9]: 0.448 µM

O=C1/C(=C/c2ccccc2)CN(C(=O)Oc2ccc([N+](=O)[O-])cc2)C/C1=C\c1ccccc1
GI50 [6]: 1.71 µM | TGI [6]: 6.74 µM and 3.51 µM | GI50 [8]: 3.11 µM | GI50 [9]: 1.56 µM | TGI [9]: 4.2 µM and 3.31 µM

O=C1CC2Sc3ccccc3N=C2N1c1ccc(Cl)cc1Cl (stereo not drawn)
TGI [4]: > 100 µM | TGI [6]: > 100 µM | TGI [10]: > 100 µM | TGI [8]: > 100 µM | TGI [9]: > 100 µM

O=C(OCc1nc2ccc(Br)cc2c(=O)n1-c1ccccc1)c1ccccc1O
TGI [2]: > 100 µM | TGI [4]: > 100 µM | TGI [6]: > 100 µM | TGI [10]: > 100 µM | TGI [8]: > 100 µM | TGI [9]: > 100 µM

O=C1c2cccc3cccc(c23)C(=O)N1CCCN1CCN(CCCN2C(=O)c3cccc4cccc(c34)C2=O)CC1
TGI [2]: > 100 µM | TGI [4]: > 100 µM | TGI [6]: > 100 µM | TGI [10]: > 100 µM | TGI [9]: > 100 µM

COC(=O)C1=C(O)C(C(=O)OC)[C@@]2(O)[C@@H](C(=O)OC)C(c3ccc(OC(=O)C(CC(C)C)NC(C)=O)cc3)C[C@@H]1[C@@H]2C(=O)OC (stereo partly drawn)
GI50 [1]: 33.9 µM | TGI [1]: > 100 µM | GI50 [3]: 58.3 µM | TGI [3]: > 100 µM | GI50 [6]: 27.5 µM | TGI [6]: 88.1 µM | GI50 [10]: 39.5 µM | TGI [10]: > 100 µM | GI50 [7]: 37.8 µM | TGI [7]: > 100 µM | GI50 [8]: 35.7 µM | TGI [8]: > 100 µM | GI50 [9]: 26.5 µM | TGI [9]: 76.4 µM

COc1ccccc1NC(=O)C(=O)C1C(=O)Nc2ccccc2S1=O (stereo not drawn)
TGI [2]: > 100 µM | TGI [4]: > 100 µM | TGI [6]: > 100 µM | TGI [8]: > 100 µM | TGI [9]: > 100 µM

Cn1cc(-c2nn3cc(-c4cccs4)nc3s2)c2cc(F)ccc21
GI50 [1]: 3.19 µM | TGI [1]: > 100 µM | GI50 [2]: 4.09 µM | TGI [2]: 50 µM | GI50 [3]: 2.34 µM | TGI [3]: 13.4 µM | GI50 [4]: 1.81 µM | TGI [4]: 31.6 µM | GI50 [5]: 3.67 µM | TGI [5]: 31.6 µM | GI50 [6]: 1.05 µM | TGI [6]: > 100 µM | GI50 [10]: 12.2 µM | TGI [10]: 76.9 µM | GI50 [8]: 6.58 µM | TGI [8]: > 100 µM | GI50 [9]: 2.76 µM | TGI [9]: 17.9 µM

N#CC(=C=[N-])[n+]1ccc(Cl)cc1
TGI [2]: 86.6 µM | TGI [4]: 30.6 µM | TGI [6]: 31.1 µM | TGI [10]: 29.8 µM | TGI [8]: 28.2 µM | TGI [9]: 29.7 µM

CCOc1cccnc1/C=N/NC(N)=S
GI50 [1]: 3.9 µM | TGI [1]: > 100 µM | GI50 [2]: 3.95 µM | TGI [2]: > 100 µM | GI50 [3]: 52.3 µM | TGI [3]: > 100 µM | GI50 [5]: 3.53 µM | TGI [5]: > 100 µM | GI50 [6]: 3.14 µM | TGI [6]: 15 µM | GI50 [7]: 4.85 µM | TGI [7]: > 100 µM | GI50 [8]: 3.42 µM | TGI [8]: > 100 µM | GI50 [9]: 2.9 µM | TGI [9]: > 100 µM

Reference: PubChem BioAssay (NCI)
